pIC50, pKi: −log10 of the molar value. Where two headings read alike, the source gives them in different places.
What was measured:
[1] = system: formaldehyde induced nociceptive behaviour; assay: Formaldehyde test in mice, second (late) phase; format: in vivo, mouse; conditions: mouse, read-out: inhibition formaldehyde test (n = 10)
[2] = system: capsaicin induced hypothermie; assay: Hypothermie assay in the mouse (capsaicin induced hypothermie); format: in vivo; conditions: as printed in this column, read-out: inhibition hypothermie (n = 5)
[3] = biological target: T1, vanilloid receptor 1 (VR1/TRPV1) of the rat species (Rattus norvegicus, UniProt O35433); assay: FLIPR Ca2+ influx assay on rat dorsal root ganglia cells (pharmacological method I); format: cell-based
T1 construct: The spinal column is removed from decapitated rats; from tissue; host or cells: primary cells dissociated from rat dorsal root ganglia
Outline: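 Primary rat dorsal root ganglion cells loaded with 2 μM Fluo-4, Ca2+ influx read on FLIPR as peak fluorescence. Triplicates, at least 3 independent experiments.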

VR1/TRPV1 receptor = VR1/TRPV1 receptor (Homo sapiens, UniProt Q8NER1); assay: IC50 (human) after pH stimulus; format: cell-based; conditions: Table 2
vanilloid receptor (VR1) = biological target: T2, vanilloid receptor (VR1) (Homo sapiens, UniProt Q8NER1); assay: FLIPR Ca2+ influx assay on CHO K1 cells transfected with the VR1 gene (pharmacological method II); format: cell-based
T2 construct: expressed in transfected cells; host or cells: CHO K1 cells (ECACC), stably transfected

[4] = Table 2, displacement of capsaicin (100 nM), Cheng-Prusoff, read-out: Ki (rat)
[5] = Table 2, displacement of capsaicin (100 nM), Cheng-Prusoff, read-out: Ki (human)

T1 sequence (O35433 whole entry): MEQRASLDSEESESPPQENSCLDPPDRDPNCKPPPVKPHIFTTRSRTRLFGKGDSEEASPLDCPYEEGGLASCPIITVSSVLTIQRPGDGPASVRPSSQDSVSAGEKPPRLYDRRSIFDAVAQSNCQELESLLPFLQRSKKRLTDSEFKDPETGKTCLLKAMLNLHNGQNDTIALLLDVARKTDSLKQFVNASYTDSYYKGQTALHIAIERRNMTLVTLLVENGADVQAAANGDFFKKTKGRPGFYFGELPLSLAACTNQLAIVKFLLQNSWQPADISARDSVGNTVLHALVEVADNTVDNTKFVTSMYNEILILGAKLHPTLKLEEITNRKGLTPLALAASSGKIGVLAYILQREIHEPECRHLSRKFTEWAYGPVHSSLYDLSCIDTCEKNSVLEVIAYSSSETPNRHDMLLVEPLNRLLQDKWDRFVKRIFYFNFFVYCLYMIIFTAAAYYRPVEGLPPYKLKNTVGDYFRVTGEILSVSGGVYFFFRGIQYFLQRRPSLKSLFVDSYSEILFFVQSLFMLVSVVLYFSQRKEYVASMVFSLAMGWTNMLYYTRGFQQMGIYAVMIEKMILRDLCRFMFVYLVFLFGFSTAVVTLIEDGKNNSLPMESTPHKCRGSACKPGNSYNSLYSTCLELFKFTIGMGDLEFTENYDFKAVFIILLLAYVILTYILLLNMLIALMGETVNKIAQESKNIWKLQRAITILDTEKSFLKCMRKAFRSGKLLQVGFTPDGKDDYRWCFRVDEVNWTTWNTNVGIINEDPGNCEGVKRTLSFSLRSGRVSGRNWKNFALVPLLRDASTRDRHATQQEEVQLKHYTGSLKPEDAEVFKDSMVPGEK
T2 sequence (Q8NER1 whole entry): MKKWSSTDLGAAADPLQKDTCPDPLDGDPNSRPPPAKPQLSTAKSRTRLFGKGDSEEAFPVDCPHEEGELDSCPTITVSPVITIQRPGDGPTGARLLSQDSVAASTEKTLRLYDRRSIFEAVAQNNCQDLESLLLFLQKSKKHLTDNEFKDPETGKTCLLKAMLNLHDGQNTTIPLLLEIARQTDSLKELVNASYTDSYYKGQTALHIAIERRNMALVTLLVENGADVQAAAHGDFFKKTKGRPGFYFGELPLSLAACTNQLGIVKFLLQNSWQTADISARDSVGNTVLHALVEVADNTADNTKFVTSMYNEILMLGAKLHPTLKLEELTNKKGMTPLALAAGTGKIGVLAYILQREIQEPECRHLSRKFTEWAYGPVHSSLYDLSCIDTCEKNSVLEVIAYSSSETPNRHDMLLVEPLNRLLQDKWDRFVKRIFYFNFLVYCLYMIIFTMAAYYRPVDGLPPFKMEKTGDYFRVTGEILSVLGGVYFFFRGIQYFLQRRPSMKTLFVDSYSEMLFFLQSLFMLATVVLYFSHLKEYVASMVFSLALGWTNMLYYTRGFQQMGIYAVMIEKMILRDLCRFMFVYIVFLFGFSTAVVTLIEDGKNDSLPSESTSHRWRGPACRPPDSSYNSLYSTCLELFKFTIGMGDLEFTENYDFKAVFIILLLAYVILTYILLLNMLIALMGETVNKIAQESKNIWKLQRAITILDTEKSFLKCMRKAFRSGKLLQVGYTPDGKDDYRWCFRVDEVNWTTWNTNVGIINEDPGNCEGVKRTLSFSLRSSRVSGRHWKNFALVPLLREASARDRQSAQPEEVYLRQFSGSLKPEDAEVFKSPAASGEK
Chain of VR1/TRPV1 receptor (Q8NER1 whole entry): as above

pKi [3, 4] | pIC50 (VR1/TRPV1 receptor) | pKi (vanilloid receptor (VR1); [5]) | melting point [°C] | pKi ([3]; table 4, capsaicin, read-out: Ki (rat) Cap.) | pKi (vanilloid receptor (VR1); table 4, capsaicin, read-out: Ki (human) Cap.) | Structure (SMILES) | inhibition in vivo at 1 mg/kg ([1]; 1 mg/kg body weight po) [%] | inhibition at 1 µM ([2]; @ 1 μM) [%] | inhibition in vivo at 0.3 mg/kg ([1]; 0.3 mg/kg body weight po) [%] | inhibition at 10 µM ([2]; @ 10 μM) [%]
– | – | – | – | – | – | CC(C(=O)NCc1ccc(C(C)(C)C)cc1OCC(C)(C)C)c1ccc(NS(C)(=O)=O)c(F)c1 (centres unmarked) [Compound 152] | 24 | 45 | – | –
8.59 | 6.87 | 8.77 | 126 to 127 | – | – | CC(C(=O)NCc1ccc(C(F)(F)F)cc1N1CCCCC1)c1ccc(NS(C)(=O)=O)c(F)c1 (centres unmarked) [Example 3] | – | – | – | –
8.96 | 7.19 | 9.52 | 75 to 79 | – | – | C[C@H](C(=O)NCc1ccc(C(F)(F)F)nc1N1CCCCC1)c1ccc(NS(C)(=O)=O)c(F)c1 [Example 10, (S)-2-(3-fluoro-4-(methylsulfonamido)phenyl)-N-((2-(piperidin-1-yl)-6-(trifluoromethyl)pyridin-3-yl)methyl)propanamide] | – | – | – | –
– | – | – | – | 8.66 | 8.42 | CC(C(=O)NCc1ccc(C(C)(C)C)cc1OCC(C)(C)C)c1ccc(NS(C)(=O)=O)c(F)c1 (centres unmarked) [Example 152, N-[4-tert-butyl-2-(2,2-dimethyl-propoxy)-benzyl]-2-(3-fluoro-4-methylsulfonamido-phenyl)-propionamide] | – | – | 33 | 63
